Consider two compounds from US7067633B2, “Targeting cellular entry, cell survival, and pathogenicity by dynein light chain 1/PIN in human cells” (Board of Regents, The University of Texas System, priority 2003, dated 2006).

One test relates to pS2 gene chromatin. The test can be described thus: Chromatin immunoprecipitation (ChIP), pS2 promoter. Type of test: cell-based, human. Conditions: DLC1 overexpression in MCF-7/DLC1 cells. From the text:
FIG. 14A: Characterization of MCF-7 cells expressing T7-DLC1 under a tet-inducible promoter. Time and dose dependent upregulation of Dox-mediated T7-DLC1 expression. FIG. 14B: DLC1 deregulation potentiates stimulation of Bcl-2 by E2 and by Tam. […] FIG. 14C: DLC1 upregulation suppress Tam ability to inhibit E2-mediated ER transactivation. MCF-7/DLC1 cells were transfected with ERE-luc. […] FIG. 14D: DLC1 deregulation potentiated E2-mediated stimulation of ERE-luc activity in Ishikawa and MCF-7/TAMR1 cells. […] FIG. 14E: Recruitment of DLC1 and ERá to the pS2 promoter chromatin. MCF-7/DLC1 cells were treated with or without Dox for 24 and then with E2 (10^−9M) for 1 h. Chromatin lysates were immunoprecipitated with anti-ER-á or anti-T7 (to detect T7-DLC1) antibodies. Upper panels show the PCR analysis of 304 bp pS2 promoter fragment associated with ER or T7-DLC1.
To delineate the significance of the DLC1 in the modulation of ER transactivation, the effect of T7-DLC1 deregulation on the recruitment of ER to the ER-target pS2 gene promoter chromatin using a chromatin immunoprecipitation (ChIP) assay with anti-ERα or anti-T7 antibodies was examined. […] When the above ChIP studies were repeated using T7 antibody to isolate T7-DLC1, it was observed that both basal and ligand-activated DLC1 were also recruited to pS2 gene chromatin (FIG. 14E). […]

The test system of another test is DLC1 promoter. Briefly: DLC1 promoter luciferase reporter. Type of test: cell-based, human. Conditions: Ishikawa cells, 24 h. The procedure: FIGS. 21A–21J—Estrogenic signals upregulate DLC1 expression via Pak1 pathway. FIG. 21A: DLC1 upregulation by E2 or Tam. MCF-7/Tam-sen, MCF-7/TAMR1 and Ishikawa cells were treated with E2 (10^−9M) or Tam (10^−9M) for 24 h, and cell lysates were assayed for DLC1 and Pak1 protein expression. FIG. 21B: Upregulation of DLC1 mRNA in MCF-7 cells treated with different doses of E2 for 24 h. FIG. 21C: Effect of different periods of E2 treatment and cycloheximide (CHX) and Actinomycin D (ACTD) treatment on the ability of E2 to upregulate DLC1 mRNA in MCF-7 cells. FIG. 21D: DLC1 mRNA and protein levels in MCF-7/DA-Pak1 cells by Northern and Western blotting. FIG. 21E: DLC1 mRNA and protein levels in MCF-7/DN-Pak1 cells by Northern and Western blotting. FIG. 21F: Downregulation of DLC1 protein expression in MCF-7 cells treated with Pak1-siRNA for 24 h. FIG. 21G: Modulation of DLC1 promoter (1245 bp) luc activity by the expression of wtPak1 or DN-Pak1. MCF-7 cells were transfected with DLC1-luc and transfected with either wtPak1 or Pak1 inhibitor 83-149 and luc activity was measured after 24 h. FIG. 21H: Upregulation of DLC1 promoter luc activity following pak1 induction in MCF-7/DA-Pak 1 cells. FIG. 21I: Downegulation of DLC1 promoter luc activity in MCF-7/DN-pak1 cells. […]

In the next test the test system is ZR75 cells. The test can be described thus: Tumorigenicity of stably expressing ZR75 cells in nude mice. Conditions: 5×10^6 cells, no exogenous estradiol. Type of test: in vivo. The procedure: FIGS. 6A–6E—DLC1/PIN overexpression potentiates anchorage-independent growth and promotes tumorigenesis. FIG. 6A: Effect DLC1/PIN expression on anchorage-independent growth of ZR75 cells. The anchorage-independent growth potential of DLC1/PIN-expressing clones was measured by the ability of the cells to form colonies on soft agar. […] Error bars represent standard error of mean. FIG. 6B: Western blot analysis of the expression of DLC1/PIN and Pak1 in lysates from cells derived from MCF10AT model system. […] FIG. 6C: Nude mice were injected with 5×10^6 cells stably expressing pcDNA or wild type DLC1/PIN (clone#2) or mutant DLC1/PIN^del88-89 and tumor growth was measured at weekly intervals. […] Tumor growth was only observed in cells expressing wild type DLC1/PIN but not detected in mutant expressing cells. FIG. 6E: Morphology of tumor and expression of T7-DLC1/PIN in DLC1/PIN-induced tumors as measured by H&E and anti T7 staining respectively.
Cell proliferation, soft-agar, and tumorigenicity assays. […] For xenograft studies, 5×10^6 cells were implanted subcutaneously into mammary fat-pads of 10 nude mice, as previously described (Bagheri et al., 2001), and allowed to grow for 20 weeks; tumor size was then measured. […]

On to `CC/C(=C(\c1ccccc1)c1ccc(OCCN(C)C)cc1)c1ccccc1` [tamoxifen], for which the “ER interaction with the pS2 gene chromatin” value in the test on pS2 gene chromatin was “enhanced ER interaction”. Moreover, the DLC1 promoter activity result with DLC1 promoter is “stimulated”. “DLC1/PIN^del 88-89: DLC1/PIN mutant in which Ser88 and amino acid 89 were deleted”: the tumorigenic potential entry in the test with ZR75 cells is on record as “did not exhibited any tumorigenic potential”.
